Experimental data published in patent US11684593B2 (GENEHEAL BIOTECHNOLOGY CO., LTD., priority 2017, dated 2023).
pIC50: −log10 of the molar value.

What was measured:
oncogene myc = settings: Western Blot, FIG. 4
[1] = tested on: breast cancer cell strain MD468; experiment: cells; settings: 48 h
[2] = tested on: lung cancer cell strain H1299; experiment: cells; settings: Homo sapiens, NCI-H1299, 48 h
[3] = tested on: breast cancer cell strain MD231; experiment: cells; settings: 48 h
[4] = tested on: lung cancer cell strain A549; experiment: cells; settings: Homo sapiens, A549, 48 h
PAICS = PAICS (Homo sapiens, UniProt P22234)
Sequence of PAICS (P22234 whole entry): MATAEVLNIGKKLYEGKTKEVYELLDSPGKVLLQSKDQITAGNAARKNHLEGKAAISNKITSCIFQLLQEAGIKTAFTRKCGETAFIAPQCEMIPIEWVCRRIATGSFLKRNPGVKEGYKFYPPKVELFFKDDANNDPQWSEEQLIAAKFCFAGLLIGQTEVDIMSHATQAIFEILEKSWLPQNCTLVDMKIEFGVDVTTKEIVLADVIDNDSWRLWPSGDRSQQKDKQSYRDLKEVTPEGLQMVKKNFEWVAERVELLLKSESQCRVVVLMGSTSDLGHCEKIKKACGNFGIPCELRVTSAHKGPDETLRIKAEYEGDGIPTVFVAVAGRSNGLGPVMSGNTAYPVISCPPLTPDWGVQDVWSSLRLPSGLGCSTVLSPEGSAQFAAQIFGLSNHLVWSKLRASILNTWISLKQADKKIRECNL

pIC50 [1]: 4.42
pIC50 [2]: 4.60
pIC50 [3]: 5.45
pIC50 [4]: 3.93
inhibition of the accumulation of SAICAR (PAICS): up to 71.1%
Structure (SMILES): NCCCNCCCCNCCCN [spermine]
expression of oncogene myc (oncogene myc): significantly down-regulated
